Our source for the IC50 and CC50 values is ChEMBL document CHEMBL3603778, “Exploration on natural product anibamine side chain modification toward development of novel CCR5 antagonists and potential anti-prostate cancer agents” (Bioorg Med Chem Lett, 2015).

Data set [1] concerns the target C-C chemokine receptor type 5 (Homo sapiens, UniProt P51681). Briefly: Antagonist activity at CCR5 (unknown origin) expressed in human MOLT4 cells assessed as inhibition of CCL5-induced calcium mobilization after 1 hr. The format is functional, cell-based, MOLT-4. Background: Calcium assays in cells follow changes in intracellular calcium, usually with a dye or a luminescent sensor.

The nature of data set [2]: Antiproliferative activity against human M12 cells after 72 hrs by WST1 assay. The format is functional, cell-based. The following applies: M12, 72 h.
Data set [3] concerns PC-3. Put plainly: Antiproliferative activity against human PC3 cells after 72 hrs by WST1 assay. The conditions noted are these: PC-3, 72 h. It counts as functional, cell-based.
A short description of data set [4]: Cytotoxicity against mouse NIH/3T3 cells after 72 hrs by WST1 assay. It counts as cell-based, NIH3T3. The following applies: read-out: TC50. A general note: Formazan colour is commonly taken as a measure of viable cells.

Each structure is given as a SMILES string.

Chain of C-C chemokine receptor type 5 (P51681 whole entry): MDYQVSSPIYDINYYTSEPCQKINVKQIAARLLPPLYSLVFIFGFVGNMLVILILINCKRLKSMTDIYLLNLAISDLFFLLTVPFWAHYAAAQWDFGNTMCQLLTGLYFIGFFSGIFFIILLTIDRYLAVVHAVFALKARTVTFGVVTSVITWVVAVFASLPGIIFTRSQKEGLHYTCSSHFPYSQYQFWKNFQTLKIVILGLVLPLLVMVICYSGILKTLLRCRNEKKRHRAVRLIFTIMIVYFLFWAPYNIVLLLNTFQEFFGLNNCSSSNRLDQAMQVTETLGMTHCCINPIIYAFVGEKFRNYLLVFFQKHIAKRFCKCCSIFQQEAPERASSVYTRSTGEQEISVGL

With `Cc1c(CNC(=O)c2ccc3ccccc3c2)c(C)[n+]2c(c1CNC(=O)c1ccc3ccccc3c1)CCC2`, the IC50 in data set [1] came to 12.7 µM; in data set [2], 192 µM; in data set [3], 101 µM.

In the case of `Cc1c(CNC(=O)c2ccc(-c3ccccc3)cc2)c(C)[n+]2c(c1CNC(=O)c1ccc(-c3ccccc3)cc1)CCC2`, the concentration for half-maximal inhibition (IC50) in data set [1] was 17.3 µM; in data set [2] it was 49.1 µM; in data set [3], 47.1 µM. Further, the CC50 at 72 h in data set [4] was determined as 228 µM.

Take `Cc1c(CNC(=O)c2ccc(C3CCCCC3)cc2)c(C)[n+]2c(c1CNC(=O)c1ccc(C3CCCCC3)cc1)CCC2`: the IC50 came to 12.9 µM in data set [1], 20.9 µM in data set [2] and 55.3 µM in data set [3]. Moreover, the CC50 at 72 h in data set [4] was 43.4 µM.

With `Cc1c(CNC(=O)c2ccc(C(C)(C)C)cc2)c(C)[n+]2c(c1CNC(=O)c1ccc(C(C)(C)C)cc1)CCC2`, the IC50 was determined as 30.1 µM in data set [1], 59.9 µM in data set [2] and 31 µM in data set [3]. Also, the CC50 at 72 h in data set [4] was determined as 83.2 µM.

For the compound `Cc1c(CNC(=O)c2ccc(C(C)C)cc2)c(C)[n+]2c(c1CNC(=O)c1ccc(C(C)C)cc1)CCC2`, the 50% inhibitory concentration (IC50) was 26.8 µM in data set [1], 120 µM in data set [2] and 168 µM in data set [3]. For the same compound, the CC50 at 72 h in data set [4] turned out to be 270 µM.

In the case of `Cc1c(CNC(=O)c2ccc(Br)cc2)c(C)[n+]2c(c1CNC(=O)c1ccc(Br)cc1)CCC2`, the IC50 in data set [1] stood at 38.5 µM; in data set [2] it was 92 µM; in data set [3] it was 147 µM. In data set [4], the CC50 at 72 h was 182 µM.

Take `Cc1c(CNC(=O)c2ccc(Cl)cc2)c(C)[n+]2c(c1CNC(=O)c1ccc(Cl)cc1)CCC2`: the IC50 in data set [1] came out at 46.2 µM; in data set [2] it was 135 µM; in data set [3], 179 µM. Besides, the CC50 at 72 h in data set [4] came out at 263 µM.

Take `Cc1c(CNC(=O)c2ccc(C(F)(F)F)cc2)c(C)[n+]2c(c1CNC(=O)c1ccc(C(F)(F)F)cc1)CCC2`: the IC50 in data set [1] came out at 121 µM.

In the case of `Cc1c(CNC(=O)c2ccc([N+](=O)[O-])cc2)c(C)[n+]2c(c1CNC(=O)c1ccc([N+](=O)[O-])cc1)CCC2`, the values for the IC50 in data set [1], in data set [2] and in data set [3] were 67.7 µM, 161 µM and more than 300 µM, respectively.

For `Cc1c(CNC(=O)c2ccc(F)cc2)c(C)[n+]2c(c1CNC(=O)c1ccc(F)cc1)CCC2`, in data set [1], the IC50 is 80.9 µM.

As to `Cc1c(CNC(=O)c2ccc(C#N)cc2)c(C)[n+]2c(c1CNC(=O)c1ccc(C#N)cc1)CCC2`, the IC50 in data set [1] was found to be 101 µM.

With `Cc1c(CNC(=O)c2ccc(N)cc2)c(C)[n+]2c(c1CNC(=O)c1ccc(N)cc1)CCC2`, the IC50 in data set [1] was determined as 174 µM.

As to `CSc1ccc(C(=O)NCc2c(C)c(CNC(=O)c3ccc(SC)cc3)c3[n+](c2C)CCC3)cc1`, the IC50 in data set [2] was 252 µM; in data set [3], 102 µM.

Regarding `COc1ccc(C(=O)NCc2c(C)c(CNC(=O)c3ccc(OC)cc3)c3[n+](c2C)CCC3)cc1`, the values for the IC50 in data set [1], in data set [2] and in data set [3] were 69 µM, 127 µM and 154 µM, respectively.

For `CCc1ccc(C(=O)NCc2c(C)c(CNC(=O)c3ccc(CC)cc3)c3[n+](c2C)CCC3)cc1`, the IC50 in data set [1] was 23.9 µM; in data set [2], 169 µM; in data set [3], 162 µM.

In the case of `Cc1ccc(C(=O)NCc2c(C)c(CNC(=O)c3ccc(C)cc3)c3[n+](c2C)CCC3)cc1`, the IC50 in data set [1] stood at 18.7 µM; in data set [2], 185 µM; in data set [3], 244 µM.

Turning to `Cc1c(CNC(=O)c2ccccc2)c(C)[n+]2c(c1CNC(=O)c1ccccc1)CCC2`, the IC50 turned out to be 1.35 µM in data set [1], 285 µM in data set [2] and 508 µM in data set [3]. The CC50 at 72 h in data set [4] is 212 µM.

For orientation: IC50 means the concentration at which inhibition is half-maximal.
